The source of these data is US7816397B2, “Phenylcarboxylic acid derivatives and use thereof for the treatment of diabetes” (Merck Patent GmbH, priority 2004, dated 2010).

The subject of one assay is INS-1 cells. Briefly: Insulin secretion test on INS-1 cells. Format: cell-based. The following applies: Rattus norvegicus, INS1, test compound concentration 10^−5 M, read-out: INS-1 Test concentration 10^−5 M % (Sec INS, percentage of insulin secretion). The text has this:
Insulin Secretion Test on INS-1 Cells
According to the method described in Endocrinology, 1992 vol. 130 (1) pp. 167-178
Sec INS corresponds to the percentage of insulin secretion.
C corresponds to the concentration of test compound according to the invention.

Assay [1] has as its system isolated islets of Langerhans. Briefly: Insulin secretion test on islets isolated from rats (static incubation, stimulation factor). Conditions: 90 minutes incubation, glucose 2.8 mM or 8 mM (not given), stimulates if factor >= 130%; for Isolated islets 10^−5 M (stimulation factor of insulin secretion): compound 10^−5 M; for Isolated islets 10^−7 M (stimulation factor of insulin secretion): compound 10^−7 M. Format: cell-based. As for the experimental part:
Insulin Secretion Test on Islets Isolated from Rats
The effect of the compounds on insulin secretion as a function of the glucose concentration was tested, in vitro, in isolated islets of Langerhans in static incubation.
The islets Langerhans obtained by digestion of exocrine pancreatic tissue with collagenase, followed by purification on a Ficoll gradient, are incubated for 90 minutes in the presence of two concentrations of glucose (2.8 mM or 8 mM), in the presence or absence of the chemical compound. The insulin secretion is assayed by RIA in the incubation medium.
The potential of the various chemical compounds to stimulate insulin secretion is estimated by calculating the stimulation factor*.
A compound stimulates insulin secretion if this factor is greater than or equal to 130% for a given dose of glucose.
G=insulin secretion (pmol/min. islet) in the presence of glucose alone
G+P=insulin secretion (pmol/min. islet) in the presence of the same concentration of glucose and of the test compound.

For a further assay, the system named is n0-STZ/sucrose rats. The experiment in a line: In vivo oral glucose tolerance test (OGTT) after daily treatment for 7 days. Further details: species or system Rats Wistar. Conditions: 100 mg/kg/day for 7 days. As for the experimental part:
To evaluate the effect of 2-{2-[4-(4-chlorobenzenesulfonylamino)phenyl]-ethyl}benzoic acid (compound 522) on the glucose tolerance of n0-STZ/sucrose rats, after a daily treatment for 7 days.
Rats Wistar (origin: Charles River, France), which received an injection of streptozotocin (100 mg/kg i.v.) on the day of birth. On their arrival at the Research Centre, at seven weeks old:
• 9 rats were placed on a standard diet (A04, SAFE). • 19 rats were placed on a sucrose-rich diet (58% sucrose, SAFE).
After 2 months on the diet, the rats on the sucrose diet were divided randomly into 2 subgroups (control diabetic, treated diabetic).
The three groups were then treated daily for 7 days, with excipient (0.5% methylcellulose solution) for the control group (healthy animals) and the diabetic control group, or with product (compound 522, 100 mg/kg/day) for the third group.
Glucose Tolerance Test (OGTT):
After treatment for 7 days, the animals were fasted for 3 hours before the start of the test. Samples were taken from the tail of the conscious rats. The first blood sample was taken 10 minutes before the administration of glucose (2 g/kgbody weight/oral route). Blood was then taken 10, 20, 30, 45, 60, 90 and 120 minutes after the administration of glucose.
The glucose tolerance was evaluated by means of the ΔAUC glc, which represents the cumulative increase in glycaemia above the basal value over the 120 minutes of the test.
The insulin response to glucose was estimated by means of the ΔAUC Ins, which represents the cumulative increase in insulinaemia above the basal value over the 120 minutes of the test.

`Cc1ccc(S(=O)(=O)Nc2ccccc2CCCc2ccccc2C(=O)O)c(C)c1` [Compound 109]: the activity at 10 µM in the assay on INS-1 cells was determined as 162%.

Regarding `O=C(O)c1ccccc1CCCc1ccccc1NS(=O)(=O)c1ccc2ccccc2c1` [Compound 117], in the assay with INS-1 cells, the activity at 10 µM was determined as 175%.

For the molecule `Cc1cc(C)c(S(=O)(=O)Nc2ccccc2CCCc2ccccc2C(=O)O)c(C)c1` [Compound 121], in the assay with INS-1 cells, the activity at 10 µM came to 184%.

For the molecule `Cc1ccc(S(=O)(=O)Nc2ccccc2CCCCCc2ccccc2C(=O)O)cc1` [Compound 144], the activity at 10 µM with INS-1 cells was determined as 191%.

With `Cc1ccc(S(=O)(=O)Nc2ccccc2CCCCCc2ccccc2C(=O)O)c(C)c1` [Compound 151], the activity at 10 µM in the assay on INS-1 cells came to 190%.

On to `O=C(O)c1ccccc1CCCCCc1ccccc1NS(=O)(=O)c1ccccc1F` [Compound 152], for which the activity at 10 µM with INS-1 cells turned out to be 202%.

In the case of `CCS(=O)(=O)Nc1ccccc1CCCCCc1ccccc1C(=O)O` [Compound 157], the activity at 10 µM in the assay with INS-1 cells was determined as 203%.

On to `COc1cc(C)c(S(=O)(=O)Nc2ccccc2CCCCCc2ccccc2C(=O)O)c(C)c1C` [Compound 158], for which, in assay [1], the “Isolated islets 10^−5 M (stimulation factor of insulin secretion)” value is recorded as “+166%” and the “Isolated islets 10^−7 M (stimulation factor of insulin secretion)” value was “+135%”. In addition, the activity at 10 µM in the assay on INS-1 cells is 182%.

Turning to `CN(C)c1cccc2c(S(=O)(=O)Nc3ccccc3CCCCCc3ccccc3C(=O)O)cccc12` [Compound 159], the activity at 10 µM in the assay on INS-1 cells was 269%.

With `CC(C)c1ccc(S(=O)(=O)Nc2ccccc2CCCCCc2ccccc2C(=O)O)cc1` [Compound 164], in the assay with INS-1 cells, the activity at 10 µM amounted to 180%.

For `O=C(O)c1ccccc1CCCCCc1ccccc1NS(=O)(=O)c1cccc2cccnc12` [Compound 168], in assay [1], the “Isolated islets 10^−5 M (stimulation factor of insulin secretion)” value is “+236%” and the “Isolated islets 10^−7 M (stimulation factor of insulin secretion)” value is “+169%”. In addition, the activity at 10 µM in the assay with INS-1 cells turned out to be 256%.

As to `O=C(O)c1ccccc1CCc1ccc(NS(=O)(=O)c2ccc(Cl)cc2)cc1` [Compound 522, 2-{2-[4-(4-chlorobenzenesulfonylamino)phenyl]-ethyl}benzoic acid], the “ΔAUC insulin, treated versus diabetic controls (in words)” value in the assay on n0-STZ/sucrose rats (OGTT 120 minutes) is recorded as “unchanged”. Besides, the “ΔAUC glucose down by, treated rats compared with the diabetic controls” value in the assay with n0-STZ/sucrose rats (OGTT glucose 2 g/kg oral, 120 minutes, significant p<0.05) worked out at 21%. Besides, the “ΔAUC insulin (cumulative increase in insulinaemia above the basal value)” value in the assay on n0-STZ/sucrose rats (treated rats, OGTT 120 minutes, diabetic controls 11417+/−1440) was 14494 ± 665 pmol·min. The “ΔAUC glucose (cumulative increase in glycaemia above the basal value)” value with n0-STZ/sucrose rats (treated rats, OGTT 120 minutes, diabetic controls 33306+/−1403) came to 26438 ± 2255 mg·min/dL.

For `O=C(O)c1ccccc1CCc1ccccc1NS(=O)(=O)/C=C/c1ccccc1` [Compound 639], the activity at 10 µM in the assay on INS-1 cells amounted to 144%.

`CCCCc1ccc(S(=O)(=O)Nc2ccccc2CCc2ccccc2C(=O)O)cc1` [Compound 642]: the activity at 10 µM in the assay on INS-1 cells was 140%.

Turning to `O=C(O)c1ccccc1CCc1ccccc1NS(=O)(=O)c1ccc(S(=O)(=O)c2ccccc2)s1` [Compound 650], the activity at 10 µM with INS-1 cells amounted to 139%.

As to `CCC(C)(C)c1ccc(S(=O)(=O)Nc2ccccc2CCc2ccccc2C(=O)O)cc1` [Compound 654], the activity at 10 µM in the assay on INS-1 cells was determined as 148%.

Consider `N#Cc1ccccc1S(=O)(=O)Nc1ccccc1CCc1ccccc1C(=O)O` [Compound 655], for which the activity at 10 µM in the assay with INS-1 cells was found to be 147%.
